# Test results from patent publication US20070134744A1, “Epothilone resistant cell lines” (priority 2000, published 2007).
# Counter-ions that a name gives are not always drawn. Like-named read-outs stand apart in the source and are kept apart here.
# Key:
# 298/D4/40 cells = type: cell-based, human; details: for RF (resistance factor: IC50 resistant cell line / IC50 parental KB-31): 298/D4/40 (EpoA selected), 72 hrs, in the presence of 40 nM epothilone A; for resistance profile in words: 298/D4/40 vs parental KB-31
# Experimental: (§1) Anti-proliferative assays are performed basically as described (Meyer et al., Int. J. Cancer 43:851 (1989)). Briefly, cells are seeded at 1.5×10^3 cells/well into 96-well microtiter plates and allowed to adhere by incubation overnight. Compounds are added in serial dilutions on day 1. The plates are then incubated for an additional 3 days, after which the cells are fixed with 3.3% v/v glutaraldehyde, washed with water and stained with 0.05% w/v methylene blue according to conventional methods. After washing, the dye is eluted with 3% HCl and the optical density measured at 665 nm with a SpectraMax Plus (Molecular Devices, Sunnyvale, Calif.) according to manufacturers instructions. IC50 values are determined by mathematical curve-fitting using the SoftPro2.6.1 program (Molecular Devices, Sunnyvale, Calif.) using the formula (OD treated−OD start)/(OD control−OD start)×100. […] IC50 determinations with the cell line 298/D4/40 are performed in the presence of 40 nM epothilone A.
# (§2) Data in Table 4 are gathered according to the following methods: Cells (1×10^3) are seeded in 96-well plates and allowed to adhere for 24 hrs. Compounds are then added as two-fold serial dilutions and incubation continued for an additional 72 hrs. Cell numbers at the beginning and at the end of the experiment are estimated by methylene blue staining of cellular protein mass according to conventional methods. The net mass increase of vehicle-treated cells is set as 100% growth. The IC50 is determined as the drug concentration that leads to half-maximal growth inhibition compared to the control. The resistance factor (RF) for a particular drug is calculated by dividing the IC50 determined on the resistant cell line by that determined on the parental KB-31 cells. Data are presented as average±standard deviation (SD) of three separate experiments, except na=not applicable (n<3). Colchicine-selected KB-8511 cells overexpressing P-glycoprotein served as a reference for the classical multi-drug-resistant phenotype.
# 297/C5/0 cells = type: cell-based, human; details: for RF (resistance factor: IC50 resistant cell line / IC50 parental KB-31): 297/C5/0 (EpoA selected), 72 hrs, average of three experiments; for resistance profile in words: 297/C5/0 vs parental KB-31
# Experimental: as §1, §2
# 315/sc5.9 cells = type: cell-based, human; details: for RF (resistance factor: IC50 resistant cell line / IC50 parental KB-31): 315/sc5.9 (EpoB selected), 72 hrs, average of three experiments; for resistance profile in words: 315/sc5.9 vs parental KB-31
# Experimental: as §1, §2
# KB-8511 cells = type: cell-based, human; details: for RF (resistance factor: IC50 resistant cell line / IC50 parental KB-31): KB-8511 (Colch selected), 72 hrs, average of three experiments; for resistance profile in words: KB-8511 vs parental KB-31
# Experimental: as §2
# EA40 cells = experiment: MTS growth inhibition assay; type: cell-based; details: for IC50: EA40 cells, P-gp substrates, Table 2; for resistance profile in words: EA40 vs MDA-MB-435 / EA150
# Experimental: Growth inhibition may be analyzed using conventional methods, for example a MTS assay (PROMEGA, Wis.) may be used. In this assay approximately 4000 cells per well are seeded in 96 well plates in MEM supplemented with 10% fetal calf serum and incubated at 37° C. in 5.0% CO2. After 24 hours, dilutions of drug (concentration range used is between 1 nM and 1000 nM) are added and cells are allowed to incubate with drug for an additional 72 hours. The MTS reagent mixed with PMS (MTS:PMS 20:1 according to manufacturer's instructions) is then added and absorbance quantitated using a Thermomax microplate reader system according to conventional methods (Molecular Devices, Sunnyvale, Calif.). […] Six assays per drug per plate are performed. […]
# (§3) As such, epothilone resistant cells would have some degree of cross-resistance to other P-gp substrates that could be reversed by P-gp inhibitors. To investigate this possibility, the cytotoxicity of the P-gp substrates, vincristine, doxorubicine and vinblastine is determined against epothilone A resistant cells using the MTS assay. […] When EA20 and resistant MDA/T0.3 cells are incubated with TAXOL® or epothilone A in the presence of [3′-Desoxy-3′-oxo-MeBmt]^1-[Val]^2-Ciclosporin (PSC-833; a P-gp inhibitor which is disclosed in U.S. Pat. No. 5,525,590), the resistance of MDA/T0.3 cells to TAXOL® is reversed but no effect on the resistance of EA20 to epothilone A is observed.
# MDA/T0.3 cells = experiment: MTS growth inhibition assay; type: cell-based
# Experimental: Growth inhibition may be analyzed using conventional methods, for example a MTS assay (PROMEGA, Wis.) may be used. In this assay approximately 4000 cells per well are seeded in 96 well plates in MEM supplemented with 10% fetal calf serum and incubated at 37° C. in 5.0% CO2. […] The MTS reagent mixed with PMS (MTS:PMS 20:1 according to manufacturer's instructions) is then added and absorbance quantitated using a Thermomax microplate reader system according to conventional methods (Molecular Devices, Sunnyvale, Calif.). […] Six assays per drug per plate are performed.
# as §3
# MDA/T0.3 is a clonal subline of MDA-MB-435 cells selected by increasing exposure of MDA-MB-435 cells to TAXOL®. MDA/T0.3 cells express high levels of P-glycoprotein and are resistant to a variety of chemically and functionally unrelated compounds. MDA/T0.3 cells could be sensitized to a variety of cytotoxic agents by treatment with the P-glycoprotein reversing agent PSC-833.
# MDA-MB-435 cells = experiment: MTS growth inhibition assay; type: cell-based; details: Homo sapiens, P-gp substrates, Table 2
# Experimental: Growth inhibition may be analyzed using conventional methods, for example a MTS assay (PROMEGA, Wis.) may be used. In this assay approximately 4000 cells per well are seeded in 96 well plates in MEM supplemented with 10% fetal calf serum and incubated at 37° C. in 5.0% CO2. After 24 hours, dilutions of drug (concentration range used is between 1 nM and 1000 nM) are added and cells are allowed to incubate with drug for an additional 72 hours. The MTS reagent mixed with PMS (MTS:PMS 20:1 according to manufacturer's instructions) is then added and absorbance quantitated using a Thermomax microplate reader system according to conventional methods (Molecular Devices, Sunnyvale, Calif.). […] Six assays per drug per plate are performed.
# Thus, at least two potential mechanisms of epothilone A resistance may exist—a lower resistance mechanism that is cross-resistant to TAXOL® and a higher, epothilone A specific resistance mechanism.
# [1] = MDA/T0.3 cells, P-gp substrates, Table 2, read-out: IC50
Compound,RF (resistance factor: IC50 resistant cell line / IC50 parental KB-31) (298/D4/40 cells),resistance profile in words (298/D4/40 cells),RF (resistance factor: IC50 resistant cell line / IC50 parental KB-31) (297/C5/0 cells),resistance profile in words (297/C5/0 cells),RF (resistance factor: IC50 resistant cell line / IC50 parental KB-31) (315/sc5.9 cells),resistance profile in words (315/sc5.9 cells),RF (resistance factor: IC50 resistant cell line / IC50 parental KB-31) (KB-8511 cells),IC50 (EA40 cells),IC50 (MDA/T0.3 cells),IC50 (MDA-MB-435 cells),resistance profile in words (KB-8511 cells),resistance profile in words (EA40 cells),IC50 (MDA/T0.3 cells; [1])
"O=c1[nH]cc(F)c(=O)[nH]1 [5-FU, 5-Fluorouracil]",0.9,Neither cell line is cross-resistant,1.2,Neither cell line is cross-resistant,0.4,slightly hypersensitive,1.1,,,,,,
COc1cccc2c1C(=O)c1c(O)c3c(c(O)c1C2=O)C[C@@](O)(C(C)=O)C[C@@H]3O[C@H]1C[C@H](N)[C@H](O)[C@H](C)O1 [Daunorubicin],,,,,,,,224 ± 72 nM,> 5000 nM,382 ± 101 nM,,,
"CN[C@H]1CCc2cc(OC)c(OC)c(OC)c2-c2ccc(OC)c(=O)cc21 [Demecolcine, demecolcine]",,hypersensitive,,hypersensitive,,slightly hypersensitive,,,,,resistant,,
C=C/C=C\[C@H](C)[C@H](OC(N)=O)[C@@H](C)[C@H](O)[C@@H](C)C/C(C)=C\[C@H](C)[C@@H](O)[C@@H](C)/C=C\[C@@H](O)C[C@@H]1OC(=O)[C@H](C)[C@@H](O)[C@H]1C [Discodermolide],0.5,not cross-resistant,1.3,not cross-resistant,1.2,,2.8,,,,,,
"COc1cccc2c1C(=O)c1c(O)c3c(c(O)c1C2=O)C[C@@](O)(C(=O)CO)C[C@@H]3O[C@H]1C[C@H](N)[C@H](O)[C@H](C)O1 [Doxorubicin, doxorubicin]",1.2,Neither cell line is cross-resistant,1.6,Neither cell line is cross-resistant,1.8,marginal cross-resistance,48.8,365 ± 200 nM,,> 500 nM,resistant,equally sensitive,> 5000 nM
"[NH2][Pt]1([NH2])[O]C(=O)C2(CCC2)C(=O)[O]1 [Paraplatine, Paraplatin]",3.8,very minor increase in the resistance,1.2,Neither cell line is cross-resistant,0.7,,0.8,,,,,,
"CC[C@]1(O)C[C@@H]2CN(CCc3c([nH]c4ccccc34)[C@@](C(=O)OC)(c3cc4c(cc3OC)N(C)[C@H]3[C@@](O)(C(=O)OC)[C@H](OC(C)=O)[C@]5(CC)C=CCN6CC[C@]43[C@@H]65)C2)C1 [Vinblastine, Vinblastine sulfate]",0.2,hypersensitive,0.7,hypersensitive,0.6,,162.4,< 1 nM,,< 1 nM,resistant,equally sensitive,14 ± 2.7 nM
"CC[C@]1(O)C[C@H]2CN(CCc3c([nH]c4ccccc34)[C@@](C(=O)OC)(c3cc4c(cc3OC)N(C=O)[C@H]3[C@@](O)(C(=O)OC)[C@H](OC(C)=O)[C@]5(CC)C=CCN6CC[C@]43[C@@H]65)C2)C1 [Vincristine, vincristine]",,,,,,slightly hypersensitive,,4 ± 1.7 nM,,3 ± 2 nM,,equally sensitive,
